Assay results published in PMC9916778 (International Journal of Molecular Sciences, 2023).

Experiments:
[1] = test system: MRC5 human fetal fibroblasts; test: In vitro cytotoxicity (MTT assay), normal MRC-5 fibroblasts; assay type: cell-based; settings: ± standard deviation, triplicate, read-out: IC50, MRC5 (healthy cells)
Method: (§1) The testing was performed on the ovarian carcinoma (A2780), Cisplatin-resistant ovarian carcinoma (A2780R), prostate adenocarcinoma (PC-3), prostate carcinoma (22Rv1), and leukemia monocytic (THP-1) and intestinal colon adenocarcinoma (LS180) human cell lines that were obtained from the ATCC collection of cell lines and cultivated according to the producer’s instructions. The reference normal cell line of human fetal fibroblasts (MRC-5) was obtained from the same commercial source and maintained according to the producer’s instructions. The half-maximal inhibitory concentrations (IC50) were calculated from dose–response curves by means of the GraphPad Prism 6 software (GraphPad Software, San Diego, CA, USA).

A2780 cells [2] = test: Time-dependent cellular uptake of gold (ICP-MS); assay type: in vitro ADME, human
Method: Figure 3 The intracellular gold concentration levels caused by the incubation of [Au(kin)(PPh3)] (1), [Au(PPh3)Cl], and Auranofin with A2780 cells after 2 h, 6 h, 12 h, 24 h, 48 h, and 72 h. The results were obtained by ICP-MS analyses of three parallel samples and are shown as mean values with error bars corresponding to the standard deviation values of the gold concentration expressed in ng of gold per 10^6 cells. TEXT PRINTED IN THE PICTURE: [Au(kin)PPh3] (1): Intracellular Au content [ng/10^6 cells]: 121.3; Intracellular Au content [ng/10^6 cells]: 97.1; Intracellular Au content [ng/10^6 cells]: 88.8; Intracellular Au content [ng/10^6 cells]: 89.4; Intracellular Au content [ng/10^6 cells]: 287.5; Intracellular Au content [ng/10^6 cells]: 352.9 | Auranofin: Intracellular Au content [ng/10^6 cells]: 182.5; Intracellular Au content [ng/10^6 cells]: 231.1; Intracellular Au content [ng/10^6 cells]: 361.3; Intracellular Au content [ng/10^6 cells]: 333.9; Intracellular Au content [ng/10^6 cells]: 555.3; Intracellular Au content [ng/10^6 cells]: 320.2 | [Au(PPh3)Cl]: Intracellular Au content [ng/10^6 cells]: 84.6; Intracellular Au content [ng/10^6 cells]: 106.1; Intracellular Au content [ng/10^6 cells]: 80.7; Intracellular Au content [ng/10^6 cells]: 97.6; Intracellular Au content [ng/10^6 cells]: 304.2; Intracellular Au content [ng/10^6 cells]: 415.8 DOUBTS OF THE COPYIST ABOUT THIS PICTURE: Point labels are black, not coloured by series. Where the [Au(kin)PPh3] (1) and [Au(PPh3)Cl] curves run close together, I assigned the labels by their position above or below the points: 97.1/106.1, 88.8/80.7, 89.4/97.6 and 287.5/304.2. These assignments are not fully certain. / No incubation time is printed beside any point label, only on the axis, so no time condition is given with the values.

A2780 cells [3] = test: Cell cycle analysis (flow cytometry); assay type: cell-based, human; settings: A2780, half-cytotoxic concentration, 24 h
Method: After 24 h, the cells were treated with a 4 µM solution of complex (1) and cultivated for the next 24 h. Then, the cells were washed once with PBS (0.1 M, pH 7.4), and cell cycle analysis was performed using a BD Cycletest^TM Plus DNA kit (Becton Dickinson, Franklin Lakes, NJ, USA) according to the manufacturer’s protocol. The data were acquired using a BD FACSVerse flow cytometer (Becton Dickinson, USA) in three independent experiments, each performed in duplicate, while at least 5 × 10^3 events were recorded for each sample.

NF-κB = NF-κB activity in LPS-challenged cells (SEAP reporter); assay type: cell-based, human; settings: 100 nM, 1 h pre-treatment, LPS 24 h, THP1-Blue NF-κB monocytes
Method: The effect of the tested compounds to influence the function of transcription factor NF-κB was determined on lipopolysaccharide (LPS)-challenged THP1-Blue™ NF-κB cells as we described previously. […] After 24 h incubation, the activity of NF-κB was determined as the amount of secreted embryonic alkaline phosphatase using Quanti-Blue™ medium (Invivogen).

PPARγ = test: Immunocytochemical analysis of PPARγ expression and localisation; assay type: cell-based, human; settings: 100 nM, 1 h pre-treatment, LPS-stimulated THP1-Blue NF-κB macrophages
Method: THP1-Blue™ NF-κB cells were seeded onto a µ-Slide 8 Well (Ibidi; Gräfelfing, Germany) and differentiated into macrophages by […] (PMA) at the final concentration of 50 ng/mL, as was described previously.
Differentiated macrophages were washed by PBS and covered by fresh serum-free medium for 2 h. […] One hour later, the cells were challenged by LPS for 24 h. Then, the cells were washed by PBS and fixed by 4% paraformaldehyde dissolved in PBS for 10 min. Cell permeabilization and blocking of free binding sites were performed by 0.1% (v/v) Triton X100 and 5% (w/v) bovine serum albumin (BSA) dissolved in PBS for 1 h at room temperature. After that, cells were washed by PBS with 0.1% (v/v) Tween 20 and covered by fresh PBS with 5% BSA and 0.1% Tween 20 containing Alexa Fluor® 546-labelled anti-PPARγ antibody diluted 1:100 (catalogue number sc-7273; Santa Cruz Biotechnology; Dallas, TX, USA) for a further 24 h. Then, cells were washed by PBS with 0.1% Tween 20 and incubated with Hoechst stain diluted 1:2000 for 10 min. The remaining stain was washed out by PBS and covered by fresh PBS for further microscope analysis. The confocal microscope Leica TCS SP8 MP (Leica Microsystems, Mannheim, Germany) was used for obtaining the images for the immunocytochemical analysis of PPARγ expression and localization.

[4] = test system: human cancer cell lines (A2780, A2780R, PC-3, 22Rv1, and THP-1); test: In vitro cytotoxicity, summary statements over the panel of cell lines; assay type: cell-based; settings: IC50 for normal cell line/IC50 for cancerous cell line
Method: as §1

SMILES | IC50 [1] | Intracellular Au content, 2 h (A2780 cells [2]) | Intracellular Au content, 6 h (A2780 cells [2]) | Intracellular Au content, 12 h (A2780 cells [2]) | Intracellular Au content, 24 h (A2780 cells [2]) | Intracellular Au content, 48 h (A2780 cells [2]) | Intracellular Au content, 72 h (A2780 cells [2]) | Effect on the cell cycle (A2780 cells [3]) | Effect on LPS-stimulated NF-κB activity (NF-κB) | Effect on the amount of PPARγ (PPARγ) | selectivity index (SI) [4] | Excess of intracellular gold level over [Au(kin)(PPh3)] and [Au(PPh3)Cl] (A2780 cells [2]; A2780 cells, after 12 h of incubation) | Population of cells in G2/M phase (A2780 cells [3]) | Population of cells in S phase (A2780 cells [3]) | Number of cells in the G0/G1 phase (A2780 cells [3]; vs untreated control)
[Cl][Au].c1ccc(P(c2ccccc2)c2ccccc2)cc1 [[Au(PPh3)Cl]] | 17 ± 0.5 µM | 84.6 ng/10^6 cells | 106.1 ng/10^6 cells | 80.7 ng/10^6 cells | 97.6 ng/10^6 cells | 304.2 ng/10^6 cells | 415.8 ng/10^6 cells | practically no effect on the cell cycle | possessed some activity | did not show this effect | – | – | – | – | –
CC[PH](CC)(CC)[Au][S][C@@H]1O[C@H](COC(C)=O)[C@@H](OC(C)=O)[C@H](OC(C)=O)[C@H]1OC(C)=O [Auranofin, [3,4,5-triacetyloxy-6-(acetyloxymethyl)-oxane-2-thiolate-(triethylphosphine)gold(I)]] | 3.78 ± 0.01 µM | – | – | – | – | – | – | – | the only gold(I) complex able to inhibit the activity of pro-inflammatory transcription factor NF-κB | – | around 1 | up to 4 times | 23.3 ± 3.6% | 19.4 ± 0.5% | significant decrease in the number of cells in the G0/G1 phase
